Assay results as given in US9617258B2, “Pyrrolo[2,3-d]pyrimidinyl, pyrrolo[2,3-b]pyrazinyl and pyrrolo[2,3-d]pyridinyl acrylamides” (Pfizer Inc., priority 2013, dated 2017).

Experiment: Stability of JAK3 covalent inhibitors in human whole blood;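 further: parent compound remaining over incubation time quantified by LC-MS/MS as peak area ratio against an internal standard, using pooled K2-EDTA blood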
Format: in vitro ADME
Conditions: both sexes, whole blood, 37° C., read-out: Human blood stability t1/2

First: C=CC(=O)N1CCC(Nc2cnc3[nH]cc(C(=O)NC4CCCCC4(F)F)c3n2)CC1 (stereo not drawn) [Example 256, 2-[(1-acryloylpiperidin-4-yl)amino]-N-(2,2-difluorocyclohexyl)-5H-pyrrolo[2,3-b]pyrazine-7-carboxamide]
Second: C=CC(=O)N1CCC(Nc2cnc3[nH]cc(C(=O)NC4CCCC4)c3n2)CC1 [Example 283, 2-[(1-acryloylpiperidin-4-yl)amino]-N-cyclopentyl-5H-pyrrolo[2,3-b]pyrazine-7-carboxamide]
The half-life at 1 μM of the first is lower: 3.98 h for the first, over 6 h for the second.

Going from `C=CC(=O)N1CCC(Nc2cnc3[nH]cc(C(=O)NC(C)(C)C)c3n2)C[C@@H]1C` (mixture of isomers) [Example 340] to `C=CC(=O)N1CCC(Nc2cnc3[nH]cc(C(=O)NC(C)(C)C)c3n2)CC1` [Example 266, 2-[(1-acryloylpiperidin-4-yl)amino]-N-tert-butyl-5H-pyrrolo[2,3-b]pyrazine-7-carboxamide], the half-life at 1 μM falls from over 6 h to 5.6 h.

`C=CC(=O)N1CCC(Nc2cnc3[nH]cc(C(=O)NCC(C)CC(F)(F)F)c3n2)CC1` (stereo not drawn) [Example 253, 2-[(1-acryloylpiperidin-4-yl)amino]-N-(4,4,4-trifluoro-2-methylbutyl)-5H-pyrrolo[2,3-b]pyrazine-7-carboxamide] and `C=CC(=O)N1CCC(Nc2cnc3[nH]cc(C(=O)NC[C@H](C)CC(F)(F)F)c3n2)CC1` [Example 241, 2-[(1-acryloylpiperidin-4-yl)amino]-N-[(2R)-4,4,4-trifluoro-2-methylbutyl]-5H-pyrrolo[2,3-b]pyrazine-7-carboxamide] cannot be ordered by half-life at 1 μM: over 6 h for the first, over 5.17 h for the second.

`C=CC(=O)N1CCCC(C)(Nc2ncnc3[nH]ccc23)C1` (stereo not drawn) [Example 71, 1-(3-((7H-Pyrrolo[2,3-d]pyrimidin-4-yl)amino)-3-methylpiperidin-1-yl)prop-2-en-1-one] and `C=CC(=O)N1CCC[C@](C)(Nc2ncnc3[nH]ccc23)C1` [Example 70, (S)-1-(3-((7H-Pyrrolo[2,3-d]pyrimidin-4-yl)amino)-3-methylpiperidin-1-yl)prop-2-en-1-one] are within 1.5-fold of each other in half-life at 1 μM: 3.82 h for the first, 5.72 h for the second.

`C=CC(=O)N1CC[C@@H](Nc2cnc3[nH]cc(C(=O)NC(C)C)c3n2)[C@H](O)C1` [Example 196, 2-{[(3R,4R)-1-acryloyl-3-hydroxypiperidin-4-yl]amino}-N-(propan-2-yl)-5H-pyrrolo[2,3-b]pyrazine-7-carboxamide] and `C=CC(=O)N1CCC(Nc2cnc3[nH]cc(C(=O)NC(C)C)c3n2)CC1` [Example 168, 2-[(1-acryloylpiperidin-4-yl)amino]-N-(propan-2-yl)-5H-pyrrolo[2,3-b]pyrazine-7-carboxamide] cannot be ordered by half-life at 1 μM: over 6 h for the first, over 5.83 h for the second.

`C=CC(=O)N1CCC[C@H]1CNc1cnc2[nH]cc(C(=O)NC(C)C)c2n1` [Example 177, 2-({[(2S)-1-acryloylpyrrolidin-2-yl]methyl}amino)-N-(propan-2-yl)-5H-pyrrolo[2,3-b]pyrazine-7-carboxamide] and `C=CC(=O)N1C[C@@H]2C(Nc3cnc4[nH]cc(C(=O)NC(C)C)c4n3)[C@@H]2C1` (stereo partly drawn) [Example 189, 2-{[(1R,5S,6s)-3-acryloyl-3-azabicyclo[3.1.0]hex-6-yl]amino}-N-(propan-2-yl)-5H-pyrrolo[2,3-b]pyrazine-7-carboxamide] cannot be ordered by half-life at 1 μM: over 5.35 h for the first, over 6 h for the second.

First: C=CC(=O)N1CCC[C@@H](Nc2ncnc3[nH]cc(C)c23)C1 [Example 43, 1-{(3R)-3-[(5-methyl-7H-pyrrolo[2,3-d]pyrimidin-4-yl)amino]piperidin-1-yl}prop-2-en-1-one]
Second: C=CC(=O)N1CCC[C@@H](Nc2ncnc3[nH]cc(-c4ccc(C)nc4)c23)C1 [Example 66, (R)-1-(3-((5-(6-methylpyridin-3-yl)-7H-pyrrolo[2,3-d]pyrimidin-4-yl)amino)piperidin-1-yl)prop-2-en-1-one]
The half-life at 1 μM of the first is lower: 4.57 h for the first, over 6 h for the second.

Going from `C=CC(=O)N1CCN(c2cnc3[nH]cc(C(=O)NC(C)C)c3n2)CC1(C)C` [Example 293, 2-(4-acryloyl-3,3-dimethylpiperazin-1-yl)-N-(propan-2-yl)-5H-pyrrolo[2,3-b]pyrazine-7-carboxamide] to `C=CC(=O)N1CCC(Oc2cnc3[nH]cc(C(=O)NC(C)C)c3n2)CC1` [Example 339, 2-((1-Acryloylpiperidin-4-yl)oxy)-N-isopropyl-5H-pyrrolo[2,3-b]pyrazine-7-carboxamide], the half-life at 1 μM falls from over 6 h to 3.78 h.

`COCCc1c[nH]c2ncnc(N[C@@H]3CCCN(C(=O)/C=C/CN(C)C)C3)c12` [Example 108, (2E)-4-(dimethylamino)-1-[(3R)-3-{[5-(2-methoxyethyl)-7H-pyrrolo[2,3-d]pyrimidin-4-yl]amino}pipendin-1-yl]but-2-en-1-one] and `C=CC(=O)N1CCC[C@@H](Nc2ncnc3[nH]cc(-c4cncc(F)c4)c23)C1` [Example 23, 1-[(3R)-3-{[5-(5-fluoropyridin-3-yl)-7H-pyrrolo[2,3-d]pyrimidin-4-yl]amino}piperidin-1-yl]prop-2-en-1-one] cannot be ordered by half-life at 1 μM: over 6 h for the first, over 6 h for the second.

Compared with `C=C(C)C(=O)N1CC[C@@H]2CCN(c3ncnc4[nH]ccc34)[C@@H]2C1` [Example 85, 2-methyl-1-[(3aS,7aS)-1-(7H-pyrrolo[2,3-d]pyrimidin-4-yl)octahydro-6H-pyrrolo[2,3-c]pyridin-6-yl]prop-2-en-1-one], `C=CC(=O)N1CC[C@H](F)[C@@H](Nc2ncnc3[nH]ccc23)C1` [Example 4, 1-((3S,4S)-3-((7H-pyrrolo[2,3-d]pyrimidin-4-yl)amino)-4-fluoropiperidin-1-yl)prop-2-en-1-one] is lower in half-life at 1 μM: over 6 h for the first, 2.33 h for the second.

`C=CC(=O)N1C[C@H](C)C[C@H](Nc2ncnc3[nH]ccc23)C1` [Example 128, 1-[(3R,5S)-3-Methyl-5-(7H-pyrrolo[2,3-d]pyrimidin-4-ylamino)piperidin-1-yl]prop-2-en-1-one] and `C=CC(=O)N1C[C@@H](F)C[C@@H](Nc2ncnc3[nH]ccc23)C1` [Example 15, 1-((3R,5S)-3-((7H-Pyrrolo[2,3-d]pyrimidin-4-yl)amino)-5-fluoropiperidin-1-yl)prop-2-en-1-one] are within 1.5-fold of each other in half-life at 1 μM: 5.07 h for the first, 3.87 h for the second.

First: C=CC(=O)N1CCC(Nc2cnc3[nH]cc(C(=O)NC4CCC4)c3n2)CC1 [Example 280, 2-[(1-acryloylpiperidin-4-yl)amino]-N-cyclobutyl-5H-pyrrolo[2,3-b]pyrazine-7-carboxamide]
Second: C=CC(=O)N1CCC(Nc2cnc3[nH]cc(C(=O)N[C@H]4CC[C@@H](F)C4)c3n2)CC1 [Example 244, 2-[(1-acryloylpiperidin-4-yl)amino]-N-[(1S,3R)-3-fluorocyclopentyl]-5H-pyrrolo[2,3-b]pyrazine-7-carboxamide]
The half-life at 1 μM of the first is higher: over 6 h for the first, 4.73 h for the second.

First: C=CC(=O)N1CCC(Nc2cnc3[nH]cc(C(=O)NCCCC(F)(F)F)c3n2)CC1 [Example 240, 2-[(1-acryloylpiperidin-4-yl)amino]-N-(4,4,4-trifluorobutyl)-5H-pyrrolo[2,3-b]pyrazine-7-carboxamide]
Second: C=CC(=O)N1CCC(Nc2cnc3[nH]cc(-c4ccc(C)nc4)c3n2)CC1 [Example 199, 1-(4-{[7-(6-methylpyridin-3-yl)-5H-pyrrolo[2,3-b]pyrazin-2-yl]amino}piperidin-1-yl)prop-2-en-1-one]
The half-life at 1 μM of the first is lower: 3.92 h for the first, over 6 h for the second.

In the case of `C=CC(=O)N1CC[C@@H](F)[C@@H](Nc2ncnc3[nH]ccc23)C1` [Example 54, 1-((3S,4R)-3-((7H-pyrrolo[2,3-d]pyrimidin-4-yl)amino)-4-fluoropiperidin-1-yl)prop-2-en-1-one], the half-life at 1 μM is reported as 3.5 h.
